Assay results taken from PubChem BioAssay (NCI).
Where “and” joins values, the source holds several entries; their conditions need not be identical. Equal entries are not always repeated.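 Assay format: 96-well plates, 48-hour exposure. Here, GI50 denotes the concentration required for 50% inhibition of growth. Definition used: TGI = concentration required for complete inhibition of growth.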

What was measured:
Test in all cases: NCI anticancer screen, dose series, 48 h
786-0 renal = system: 786-0 renal
CCRF-CEM leukemia = system: CCRF-CEM leukemia
HCT-116 colon = system: HCT-116 colon
HOP-62 NSCLC = system: HOP-62 NSCLC
K-562 leukemia = system: K-562 leukemia
LOX IMVI melanoma = system: LOX IMVI melanoma
OVCAR-5 ovarian = system: OVCAR-5 ovarian
PC-3 prostate = system: PC-3 prostate
SF-268 CNS = system: SF-268 CNS
SK-MEL-28 melanoma = system: SK-MEL-28 melanoma
UO-31 renal = system: UO-31 renal
UACC-257 melanoma = system: UACC-257 melanoma
OVCAR-4 ovarian = system: OVCAR-4 ovarian

Structure (SMILES) | TGI (786-0 renal) | TGI (CCRF-CEM leukemia) | TGI (HCT-116 colon) | TGI (HOP-62 NSCLC) | TGI (K-562 leukemia) | TGI (LOX IMVI melanoma) | TGI (OVCAR-5 ovarian) | TGI (PC-3 prostate) | TGI (SF-268 CNS) | TGI (SK-MEL-28 melanoma) | TGI (UO-31 renal) | TGI (UACC-257 melanoma) | TGI (OVCAR-4 ovarian) | GI50 (CCRF-CEM leukemia) | GI50 (HOP-62 NSCLC) | GI50 (LOX IMVI melanoma) | GI50 (OVCAR-5 ovarian) | GI50 (PC-3 prostate) | GI50 (SK-MEL-28 melanoma)
Cc1ccc2nc(-c3ccc(-c4nc5ccc(C)cc5o4)c(O)c3)oc2c1 | > 100 µM | > 100 µM | > 100 µM | > 100 µM | > 100 µM | > 100 µM | > 100 µM | > 100 µM | > 100 µM | > 100 µM | > 100 µM | – | – | – | – | – | – | – | –
COC(=O)C1Cc2c([nH]c3ccccc23)-c2[nH]c3ccccc3c2CC(NC(C)=O)C(=O)NCC(=O)NCC(=O)N1 (centres undefined) | > 100 µM | > 100 µM | > 100 µM | > 100 µM | > 100 µM | > 100 µM | > 100 µM | > 100 µM | > 100 µM | > 100 µM | > 100 µM | > 100 µM | – | – | – | – | – | – | –
CC(C)(C)Cc1cc(O)ccc1O | > 100 µM | 93.9 µM | > 100 µM | > 100 µM | > 100 µM | > 100 µM | > 100 µM | > 100 µM | > 100 µM | > 100 µM | > 100 µM | > 100 µM | > 100 µM | – | – | – | – | – | –
COc1ccc(C(c2cc(OC)c(OC)c(OC)c2)N2C(=O)CCC2C(=O)O)cc1 (centres undefined) | > 100 µM | > 100 µM | > 100 µM | > 100 µM | > 100 µM | > 100 µM | > 100 µM | > 100 µM | > 100 µM | > 100 µM | > 100 µM | > 100 µM | > 100 µM | – | – | – | – | – | –
COc1cc(/C=C2\C(=O)N(c3ccc(NC(C)=O)cc3)C(c3ccccc3)S2(=O)=O)cc(OC)c1OC (centres undefined) | > 100 µM | > 100 µM | > 100 µM | > 100 µM | > 100 µM | > 100 µM | > 100 µM | > 100 µM | – | > 100 µM | > 100 µM | > 100 µM | > 100 µM | – | – | – | – | – | –
CCNC1=C(NC(=O)c2ccc(OC)cc2)C(=O)c2ccccc2C1=O | > 100 µM | > 100 µM | > 100 µM | > 100 µM | > 100 µM | – | > 100 µM | > 100 µM | > 100 µM | > 100 µM | – | 48 µM | > 100 µM | – | – | – | – | – | –
O=C1O/C(=C\C=C\CO)C=C1/C=C/CO | 33.7 µM | 60.3 µM | 29.9 µM | – | > 100 µM | > 100 µM | 41.7 µM | 42.5 µM | 58.2 µM | 49.7 µM | 30.8 µM | – | > 100 µM | – | – | – | – | – | –
C=C1C(=O)OC2/C=C(\C)CC/C=C(\C)CC(OC(=O)/C(=C/CO)CO)[C@@H]12 (some centres undefined) | 11.5 µM | 6.75 µM | 10.7 µM | – | 9.21 µM | 31.1 µM | 31.3 µM | 31.8 µM | 45 µM | 31.2 µM | 23.9 µM | 24.2 µM | 27.5 µM | – | – | – | – | – | –
CC(=O)[C@]12OC(=O)C3=C1[C@H](CC[C@@H]3C)[C@@H](C)C[C@H]2C=C(C)C | 15.7 µM | 22.6 µM | 13.4 µM | 16 µM | 13.2 µM | 15.2 µM | 15.2 µM | 21.1 µM | 15.8 µM | – | 15.2 µM | 21 µM | – | – | – | – | – | – | –
CC(C)(C)OC(=O)NC(Cc1ccc(OCc2ccccc2)cn1)C(=O)O (centres undefined) | > 100 µM | – | > 100 µM | > 100 µM | > 100 µM | > 100 µM | > 100 µM | > 100 µM | > 100 µM | > 100 µM | > 100 µM | > 100 µM | > 100 µM | – | – | – | – | – | –
COc1ccc2cc(/C=N\NC(=O)Nc3ccc([N+](=O)[O-])cc3)ccc2c1 | 16.8 µM | – | 16.3 µM | 41.6 µM | > 31.6 µM | 17.6 µM | 48.6 µM | 18.8 µM | > 31.6 µM | 23.1 µM | 18.8 µM | 20.7 µM | 15.9 µM | – | – | – | – | – | –
CCOC(=O)CNC(=O)CNC(=O)CNC(=O)CNNc1c(OCc2ccccc2)c(=O)c1=O | > 100 µM | > 100 µM | > 100 µM | > 100 µM | > 100 µM | – | > 100 µM | > 100 µM | > 100 µM | > 100 µM | > 100 µM | > 100 µM | > 100 µM | – | – | – | – | – | –
C=CC[C@@]12CCC(=O)C=C1CCCC2=O | > 100 µM | – | > 100 µM | > 100 µM | > 100 µM | > 100 µM | > 100 µM | > 100 µM | > 100 µM | > 100 µM | > 100 µM | > 100 µM | > 100 µM | – | – | – | – | – | –
COC(=O)/C=C1/OC(c2ccc(C)cc2C)=CC1=O | 24.2 µM | > 100 µM | 24.1 µM | 61.2 µM | 10.8 µM | 17.6 µM | 31.7 µM | 34.9 µM | 48.9 µM | 36.3 µM | 30.5 µM | – | – | – | – | – | – | – | –
Brc1ccc(N=Nc2ccc3ccccc3n2)cc1 | 27.1 µM | > 100 µM | 30.1 µM | – | – | – | > 100 µM | > 100 µM | 94 µM | – | 27.5 µM | > 100 µM | – | – | – | – | – | – | –
C=CCN1C(=O)/C(=C/c2ccc(OC)cc2)N=C1SC1OC(COC(C)=O)C(OC(C)=O)C(OC(C)=O)C1OC(C)=O (centres undefined) | > 100 µM | > 100 µM | > 100 µM | 40 µM and > 100 µM | > 100 µM | > 100 µM | 39.7 µM and > 100 µM | 37.1 µM and > 100 µM | – | > 100 µM | – | 45.9 µM and > 100 µM | 15 µM and > 100 µM | 21.7 µM | 17.5 µM and 90 µM | 21.1 µM and 43.1 µM | 19.3 µM and 56.3 µM | 16.9 µM and 52.6 µM | 24.6 µM and > 100 µM
COc1ccc(OC2OC(CO)C(O)C(O)C2O)cc1 (centres undefined) | > 100 µM | > 100 µM | > 100 µM | > 100 µM | > 100 µM | > 100 µM | > 100 µM | > 100 µM | > 100 µM | > 100 µM | > 100 µM | > 100 µM | – | – | – | – | – | – | –
CC(C(=O)O)C1Nc2ccccc2NC1=O (centres undefined) | > 100 µM | > 100 µM | > 100 µM | – | > 100 µM | > 100 µM | > 100 µM | > 100 µM | > 100 µM | > 100 µM | > 100 µM | > 100 µM | > 100 µM | – | – | – | – | – | –
